In patent publication US20230286970A1, “NOVEL OXADIAZOLE-BASED SELECTIVE HDAC6 INHIBITORS” (ITALFARMACO S.P.A., priority 2020, published 2023) one finds IC50 data, which are given here for 27 molecules.

In one experiment the target is recombinant human HDAC1 (Homo sapiens (Human), UniProt Q13547). Description: Enzymatic screening, HDAC1 inhibition (fluorogenic FdL_G substrate). The experiment is classed as biochemical. The gist of the method: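 Recombinant human HDAC1 inhibition was measured fluorometrically using the FLUOR DE LYS-Green (FdL_G) substrate. Compounds at 8 doses (1% DMSO final) in Tris-HCl pH 8 buffer with NaCl, Tween-20 and glycerol were preincubated in triplicate with enzyme and 1 mg/mL BSA, then given substrate. Developer I plus 2 μM TSA was added, and fluorescence read after 25 minutes in the dark.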

Another experiment addresses recombinant human HDAC6 (Homo sapiens (Human), UniProt Q9UBN7). Nature of the experiment: Enzymatic screening, HDAC6 inhibition (fluorogenic FdL_G substrate). The format is biochemical. The gist of the method:
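Enzyme was preincubated with compound (8 doses, triplicate, 1% DMSO) in 25 mM Tris-HCl pH 8, 130 mM NaCl, 0.05% Tween-20, 10% glycerol, with BSA. A FLUOR DE LYS-Green substrate was then added, and fluorescence was read after developer plus 2 μM TSA.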

Chain of recombinant human HDAC1 (Q13547 whole entry): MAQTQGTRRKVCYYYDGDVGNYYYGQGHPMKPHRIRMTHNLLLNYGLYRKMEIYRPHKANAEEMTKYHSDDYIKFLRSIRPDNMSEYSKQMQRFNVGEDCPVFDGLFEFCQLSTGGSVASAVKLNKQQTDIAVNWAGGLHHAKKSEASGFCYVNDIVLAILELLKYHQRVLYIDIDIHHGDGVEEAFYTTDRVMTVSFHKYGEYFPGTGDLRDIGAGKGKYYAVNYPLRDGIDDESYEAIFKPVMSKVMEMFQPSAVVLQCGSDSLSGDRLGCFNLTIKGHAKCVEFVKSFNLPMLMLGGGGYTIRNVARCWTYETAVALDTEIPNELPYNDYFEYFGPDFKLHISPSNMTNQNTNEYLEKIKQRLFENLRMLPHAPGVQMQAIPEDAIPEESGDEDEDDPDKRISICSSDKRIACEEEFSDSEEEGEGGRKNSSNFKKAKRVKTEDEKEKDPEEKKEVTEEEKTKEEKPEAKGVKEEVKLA
Chain of recombinant human HDAC6 (Q9UBN7 whole entry): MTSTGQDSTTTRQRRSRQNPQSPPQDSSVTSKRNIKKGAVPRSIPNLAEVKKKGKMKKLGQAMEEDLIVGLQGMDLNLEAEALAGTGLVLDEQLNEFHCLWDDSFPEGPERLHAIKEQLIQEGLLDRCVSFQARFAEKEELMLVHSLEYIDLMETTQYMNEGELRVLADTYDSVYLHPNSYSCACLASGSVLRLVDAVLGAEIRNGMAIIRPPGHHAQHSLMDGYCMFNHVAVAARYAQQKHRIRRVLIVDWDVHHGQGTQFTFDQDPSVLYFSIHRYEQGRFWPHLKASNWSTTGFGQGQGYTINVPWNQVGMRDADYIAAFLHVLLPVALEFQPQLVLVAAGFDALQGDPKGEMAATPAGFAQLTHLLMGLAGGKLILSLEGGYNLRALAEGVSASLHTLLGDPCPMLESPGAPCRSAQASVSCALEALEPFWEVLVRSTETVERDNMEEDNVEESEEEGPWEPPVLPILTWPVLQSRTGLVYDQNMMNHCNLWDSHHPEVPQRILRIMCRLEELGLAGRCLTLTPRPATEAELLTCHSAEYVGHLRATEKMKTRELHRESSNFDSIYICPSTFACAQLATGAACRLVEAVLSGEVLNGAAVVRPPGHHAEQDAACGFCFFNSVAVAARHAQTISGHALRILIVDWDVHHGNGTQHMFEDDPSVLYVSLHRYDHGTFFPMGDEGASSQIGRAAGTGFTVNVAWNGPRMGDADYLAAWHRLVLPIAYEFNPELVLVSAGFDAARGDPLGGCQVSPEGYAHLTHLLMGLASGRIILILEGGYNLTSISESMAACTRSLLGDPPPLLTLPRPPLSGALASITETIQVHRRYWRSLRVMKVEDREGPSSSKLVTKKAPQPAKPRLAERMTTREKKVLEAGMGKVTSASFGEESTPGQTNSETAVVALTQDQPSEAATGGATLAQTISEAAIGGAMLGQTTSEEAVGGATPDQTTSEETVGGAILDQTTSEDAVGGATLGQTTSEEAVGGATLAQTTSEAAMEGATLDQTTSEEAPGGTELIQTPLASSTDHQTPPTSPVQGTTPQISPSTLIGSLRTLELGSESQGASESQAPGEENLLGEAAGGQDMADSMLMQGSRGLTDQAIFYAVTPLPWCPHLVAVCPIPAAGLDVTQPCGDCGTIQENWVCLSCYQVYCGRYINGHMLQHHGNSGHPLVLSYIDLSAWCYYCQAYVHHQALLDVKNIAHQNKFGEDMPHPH

In general, IC50 refers to the point on the concentration scale where inhibition reaches its midpoint. With `CN1CCN(c2ccc(-c3nnn(Cc4ccc(-c5nnc(C(F)F)o5)cc4)n3)cc2)CC1` [compound 213, 2-(difluoromethyl)-5-(4-((5-(4-(4-methylpiperazin-1-yl)phenyl)-2H-tetrazol-2-yl)methyl)phenyl)-1,3,4-oxadiazole], the IC50 on recombinant human HDAC1 was more than 200000 nM; at recombinant human HDAC6, 150 nM.
The corresponding values for `O=C1Nc2cc(-c3nnn(Cc4ccc(-c5nnc(C(F)F)o5)cc4)n3)ccc2NC12CCCC2` [compound 195, 6′-(2-(4-(5-(difluoromethyl)-1,3,4-oxadiazol-2-yl)benzyl)-2H-tetrazol-5-yl)-1′,4′-dihydro-3′H-spiro[cyclopentane-1,2′-quinoxalin]-3′-one] are more than 200000 nM and 104 nM.
The matching figures for `CS(=O)(=O)NCC(c1ccc(-c2nnc(C(F)F)o2)cc1)n1cc(-c2ccc(N)nc2)nn1` (stereo not drawn) [compound 302, N-[2-[4-(6-aminopyridin-3-yl)triazol-1-yl]-2-[4-[5-(difluoromethyl)-1,3,4-oxadiazol-2-yl]phenyl]ethyl]methanesulfonamide]: more than 1e+06 nM and 49 nM.
The matching figures for `CN1CCN(C(=O)Nc2cccc(-c3cn(Cc4c(F)cc(-c5nnc(C(F)F)o5)cc4F)nn3)c2)CC1` [compound 63, N-(3-(1-(4-(5-(difluoromethyl)-1,3,4-oxadiazol-2-yl)-2,6-difluorobenzyl)-1H-1,2,3-triazol-4-yl)phenyl)-4-methylpiperazine-1-carboxamide]: more than 200000 nM and 28 nM.
On to `FC(F)c1nnc(-c2ccc(Cn3nnc(-c4cccc(-c5cnc(N6CCOCC6)s5)c4)n3)cc2)o1` [compd. 253, 4-(5-(3-(2-(4-(5-(difluoromethyl)-1,3,4-oxadiazol-2-yl)benzyl)-2H-tetrazol-5-yl)phenyl)thiazol-2-yl)morpholine], for which the half-maximal inhibitory concentration (IC50) at recombinant human HDAC1 is more than 200000 nM; on recombinant human HDAC6, 352 nM.
Consider `O=C1NCCc2ccc(-c3nnn(Cc4ccc(-c5nnc(C(F)F)o5)cc4)n3)cc21` [compound 83, 7-[2-[[4-[5-(difluoromethyl)-1,3,4-oxadiazol-2-yl]phenyl]methyl]tetrazol-5-yl]-3,4-dihydro-2H-isoquinolin-1-one], for which the values for the IC50 on recombinant human HDAC1 and on recombinant human HDAC6 were more than 200000 nM and 33 nM, respectively.
The corresponding values for `O=C1Nc2ccc(-c3cn(Cc4ccc(-c5nnc(C(F)F)o5)cc4)nn3)cc2NC12CCNCC2` [compound 271, 7′-(1-(4-(5-(difluoromethyl)-1,3,4-oxadiazol-2-yl)benzyl)-1H-1,2,3-triazol-4-yl)-1′,4′-dihydro-3′H-spiro[piperidine-4,2′-quinoxalin]-3′-one] are more than 200000 nM and 43 nM.
The matching figures for `CN1CC(=O)Nc2cc(-c3cn(Cc4c(F)cc(-c5nnc(C(F)F)o5)cc4F)nn3)ccc2C1` [Compd. 237, 8-(1-(4-(5-(difluoromethyl)-1,3,4-oxadiazol-2-yl)-2,6-difluorobenzyl)-1H-1,2,3-triazol-4-yl)-4-methyl-1,3,4,5-tetrahydro-2H-benzo[e][1,4]diazepin-2-one]: more than 200000 nM and 210 nM.
With `Nc1cccc(-c2cn(Cc3ccc(-c4nnc(C(F)F)o4)cc3)nn2)c1` [compound 192, 3-(1-(4-(5-(difluoromethyl)-1,3,4-oxadiazol-2-yl)benzyl)-1H-1,2,3-triazol-4-yl)aniline], the IC50 on recombinant human HDAC1 was more than 200000 nM; on recombinant human HDAC6, 102 nM.
With `O=C1Nc2ccc(-c3nnn(Cc4ccc(-c5nnc(C(F)F)o5)cn4)n3)cc2NC12CCCC2` [compound 27, 7′-(2-((5-(5-(difluoromethyl)-1,3,4-oxadiazol-2-yl)pyridin-2-yl)methyl)-2H-tetrazol-5-yl)-1′,4′-dihydro-3′H-spiro[cyclopentane-1,2′-quinoxalin]-3′-one], the values for the IC50 at recombinant human HDAC1 and on recombinant human HDAC6 were more than 200000 nM and 9 nM, respectively.
The corresponding values for `Nc1ccc(-c2nnn(Cc3ncc(-c4nnc(C(F)F)o4)cn3)n2)cn1` [compound 77, 5-(2-((5-(5-(difluoromethyl)-1,3,4-oxadiazol-2-yl)pyrimidin-2-yl)methyl)-2H-tetrazol-5-yl)pyridin-2-amine] are more than 200000 nM and 35 nM.
As for `Nc1ccc(-c2cn(C(CCCO)c3ccc(-c4nnc(C(F)F)o4)cc3)nn2)cn1` (stereo not drawn) [compound 335, 4-(4-(6-aminopyridin-3-yl)-1H-1,2,3-triazol-1-yl)-4-(4-(5-(difluoromethyl)-1,3,4-oxadiazol-2-yl)phenyl)butan-1-ol], the IC50 on recombinant human HDAC1 is more than 1e+06 nM; on recombinant human HDAC6 it was 62 nM.
Turning to `Nc1ccc(-c2cc(Cc3ccc(-c4nnc(C(F)F)o4)cc3)on2)cn1` [Compd. 202, 5-(5-(4-(5-(difluoromethyl)-1,3,4-oxadiazol-2-yl)benzyl)isoxazol-3-yl)pyridin-2-amine], the IC50 on recombinant human HDAC1 is more than 200000 nM; at recombinant human HDAC6, 116 nM.
The matching figures for `FC(F)c1nnc(-c2ccc(Cn3cc(-c4cccs4)nn3)nc2)o1` [compound 85, 2-(difluoromethyl)-5-(6-((4-(thiophen-2-yl)-1H-1,2,3-triazol-1-yl)methyl)pyridin-3-yl)-1,3,4-oxadiazole]: more than 200000 nM and 33 nM.
The matching figures for `Nc1ccc(-n2cc(Cc3ccc(-c4nnc(C(F)F)o4)cc3)nn2)cc1` [compound 315, 4-[4-[[4-[5-(difluoromethyl)-1,3,4-oxadiazol-2-yl]phenyl]methyl]triazol-1-yl]aniline]: more than 1e+06 nM and 668 nM.
The corresponding values for `CNc1ncc2cc(-c3cn(Cc4ccc(-c5nnc(C(F)F)o5)c(F)c4)nn3)ccc2n1` [compound 393, 6-[1-({4-[5-(difluoromethyl)-1,3,4-oxadiazol-2-yl]-3-fluorophenyl}methyl)-1H-1,2,3-triazol-4-yl]-N-methylquinazolin-2-amine] are 1e+06 nM and 497 nM.
Consider `O=C1NCc2ccc(-c3cnn(Cc4ccc(-c5nnc(C(F)F)o5)cn4)c3)cc21` [compound 318, 6-[1-[[5-[5-(difluoromethyl)-1,3,4-oxadiazol-2-yl]pyridin-2-yl]methyl]pyrazol-4-yl]-2,3-dihydroisoindol-1-one], for which the figures for the IC50 at recombinant human HDAC1 and on recombinant human HDAC6 were more than 1e+06 nM and 40 nM, respectively.
The matching figures for `Nc1nc2ccc(-c3cc(Cc4ccc(-c5nnc(C(F)F)o5)cc4)on3)cc2s1` [compd. 366, 6-[5-[[4-[5-(difluoromethyl)-1,3,4-oxadiazol-2-yl]phenyl]methyl]-1,2-oxazol-3-yl]-1,3-benzothiazol-2-amine]: more than 1e+06 nM and 297 nM.
The corresponding values for `CC(C)(C)OC(=O)N1CCC2(CC1)Nc1cc(-c3cn(Cc4ccc(-c5nnc(C(F)F)o5)cc4)nn3)ccc1NC2=O` [compound 268, tert-butyl 7′-(1-(4-(5-(difluoromethyl)-1,3,4-oxadiazol-2-yl)benzyl)-1H-1,2,3-triazol-4-yl)-3′-oxo-3′,4′-dihydro-1′H-spiro[piperidine-4,2′-quinoxaline]-1-carboxylate] are more than 200000 nM and 254 nM.
For `Cn1c(=N)n(C)c2cc(-c3cn(Cc4ccc(-c5nnc(C(F)F)o5)cc4)nn3)ccc21` [compound 162, 5-(1-(4-(5-(difluoromethyl)-1,3,4-oxadiazol-2-yl)benzyl)-1H-1,2,3-triazol-4-yl)-1,3-dimethyl-1,3-dihydro-2H-benzo[d]imidazol-2-imine], the IC50 turned out to be 45100 nM at recombinant human HDAC1 and 76 nM at recombinant human HDAC6.
As to `Nc1nc2ccc(-c3cnn(Cc4ccc(-c5nnc(C(F)F)o5)cn4)c3)cc2s1` [compound 327, 6-[1-[[5-[5-(difluoromethyl)-1,3,4-oxadiazol-2-yl]pyridin-2-yl]methyl]pyrazol-4-yl]-1,3-benzothiazol-2-amine], the IC50 at recombinant human HDAC1 is more than 1e+06 nM; on recombinant human HDAC6, 40 nM.
The corresponding values for `Nc1nccc2cc(-c3nnn(Cc4ccc(-c5nnc(C(F)F)o5)cc4F)n3)ccc12` [compound 397, 6-[2-[[4-[5-(difluoromethyl)-1,3,4-oxadiazol-2-yl]-2-fluorophenyl]methyl]tetrazol-5-yl]isoquinolin-1-amine] are 1e+06 nM and 57 nM.
Consider `CN1CCC(NC(=O)c2ccc(-c3nnn(Cc4ccc(-c5nnc(C(F)F)o5)cc4)n3)cc2)CC1` [compound 232, 4-(2-(4-(5-(difluoromethyl)-1,3,4-oxadiazol-2-yl)benzyl)-2H-tetrazol-5-yl)-N-(1-methylpiperidin-4-yl)benzamide], for which the IC50 on recombinant human HDAC1 is more than 200000 nM; on recombinant human HDAC6, 198 nM.
The matching figures for `Nc1ccc(-c2ncc(Cc3ccc(-c4nnc(C(F)F)o4)cc3)o2)cc1` [compound 330, 4-(5-(4-(5-(difluoromethyl)-1,3,4-oxadiazol-2-yl)benzyl)oxazol-2-yl)aniline]: more than 1e+06 nM and 465 nM.
The matching figures for `FC(F)c1nnc(-c2ccc(Cc3cn(-c4ccc(NC5=NCCN5)cc4)nn3)cc2)o1` [compound 316, N-(4-(4-(4-(5-(difluoromethyl)-1,3,4-oxadiazol-2-yl)benzyl)-1H-1,2,3-triazol-1-yl)phenyl)-4,5-dihydro-1H-imidazol-2-amine]: more than 1e+06 nM and 56 nM.
The corresponding values for `CCNc1cccc(-c2cn(Cc3c(F)cc(-c4nnc(C(F)F)o4)cc3F)nn2)c1` [compound 114, 3-(1-(4-(5-(difluoromethyl)-1,3,4-oxadiazol-2-yl)-2,6-difluorobenzyl)-1H-1,2,3-triazol-4-yl)-N-ethylaniline] are more than 200000 nM and 43 nM.
For the molecule `Nc1nccc2cc(-c3nnn(Cc4ccc(-c5nnc(C(F)F)o5)cc4Cl)n3)ccc12` [compound 422, 6-(2-(2-chloro-4-(5-(difluoromethyl)-1,3,4-oxadiazol-2-yl)benzyl)-2H-tetrazol-5-yl)isoquinolin-1-amine], the IC50 on recombinant human HDAC1 came out at 1e+06 nM; on recombinant human HDAC6, 249 nM.
